We go through one compound from US6537587B1, “Compositions containing muscle-derived active agents” (Can-Fite Biopharma Ltd., priority 1999, dated 2003).

In the data set the test system is peripheral blood leukocytes and neutrophils. Particulars: cyclophosphamide only, 50 mg/kg i.p.; blood at 96 hours; FIG. 4. The protocol:
Mice were injected intraperitoneally (i.p.) with 50 mg/kg body weight of cyclophospharnide. The mice were then divided into the following three groups:
2. Mice receiving cyclophosphamide only (control 1); and
3. An additional group of mice received oral administration of water only (control 2).
Ninety six hours after the beginning of receiving the above treatments, blood samples were taken from each of the treated mice. Blood cell counts were carried out in a Coulter counter and differential cell counts were performed on smear preparations stained with May-Grunvald-Giemsa solution.

As for `O=P1(N(CCCl)CCCl)NCCCO1` (centres unmarked) [cyclophosphamide], the “number of neutrophils compared to mice without chemotherapeutic treatment (control 2)” value is “reduced” and the “number of peripheral blood leukocytes compared to mice without chemotherapeutic treatment (control 2)” value is “reduced”.
